Data: ChEMBL document CHEMBL1138820, “Synthesis and QSAR studies of pyrimido[4,5-d]pyrimidine-2,5-dione derivatives as potential antimicrobial agents” (2004)
In brackets after ≈: the same amount, converted by molar mass.

Key:
Assay type in all cases: functional
Aspergillus niger = assay: Minimum inhibitory concentration required for antifungal activity against Aspergillus niger ATCC 16404
Bacillus subtilis = assay: Minimum inhibitory concentration required for antibacterial activity against Bacillus subtilis ATCC 6633; gram positive
Escherichia coli = assay: Minimum inhibitory concentration required for antibacterial activity against Escherichia coli ATCC 13607; gram negative
[1] = Minimum inhibitory concentration required for antibacterial activity against Pseudomonas diminuta MTCC 3361; gram negative; settings: Brevundimonas diminuta
Staphylococcus aureus = assay: Minimum inhibitory concentration required for antibacterial activity against Staphylococcus aureus ATCC 2943; gram positive
Candida albicans = assay: Minimum inhibitory concentration required for antifungal activity against Candida albicans ATCC 10321

| MIC (Aspergillus niger) [µg/mL] | MIC (Bacillus subtilis) [µg/mL] | MIC (Escherichia coli) [µg/mL] | MIC [1] [µg/mL] | MIC (Staphylococcus aureus) [µg/mL] | MIC (Candida albicans) [µg/mL] | SMILES |
| --- | --- | --- | --- | --- | --- | --- |
| 57 (≈ 109 µM) | 37 (≈ 70.7 µM) | 40 (≈ 76.4 µM) | 46 (≈ 87.9 µM) | 32 (≈ 61.1 µM) | 52 (≈ 99.3 µM) | O=C1Nc2[nH]c(=S)n(-c3ccccc3)c(=O)c2C(c2ccccc2Cl)N1/N=N/c1ccc(Cl)cc1 (configuration not stated) |
| 20 (≈ 58 µM) |  |  |  |  | 25 (≈ 72.5 µM) | Clc1ccccc1C(c1ccccc1)(c1ccccc1)n1ccnc1 [CLOTRIMAZOLE] |
| 39 (≈ 72.6 µM) | 21 (≈ 39.1 µM) | 22 (≈ 40.9 µM) | 25 (≈ 46.5 µM) | 18 (≈ 33.5 µM) | 35 (≈ 65.1 µM) | Cc1cccc(-n2c(=S)[nH]c3c(c2=O)C(c2ccccc2Cl)N(/N=N/c2ccc(Cl)cc2)C(=O)N3)c1 (configuration not stated) |
| 14 (≈ 25.1 µM) | 4 (≈ 7.17 µM) | 4 (≈ 7.17 µM) | 5 (≈ 8.96 µM) | 2 (≈ 3.59 µM) | 11 (≈ 19.7 µM) | O=C1Nc2[nH]c(=S)n(-c3cccc(Cl)c3)c(=O)c2C(c2ccccc2Cl)N1/N=N/c1ccc(Cl)cc1 (configuration not stated) |
| 19 (≈ 33.4 µM) | 6 (≈ 10.6 µM) | 7 (≈ 12.3 µM) | 9 (≈ 15.8 µM) | 4 (≈ 7.04 µM) | 15 (≈ 26.4 µM) | O=C1Nc2[nH]c(=S)n(-c3ccc([N+](=O)[O-])cc3)c(=O)c2C(c2ccccc2Cl)N1/N=N/c1ccc(Cl)cc1 (configuration not stated) |
| 33 (≈ 59.6 µM) | 16 (≈ 28.9 µM) | 17 (≈ 30.7 µM) | 21 (≈ 37.9 µM) | 11 (≈ 19.9 µM) | 29 (≈ 52.4 µM) | COc1ccc(-n2c(=S)[nH]c3c(c2=O)C(c2ccccc2Cl)N(/N=N/c2ccc(Cl)cc2)C(=O)N3)cc1 (configuration not stated) |
| 24 (≈ 44.5 µM) | 8 (≈ 14.8 µM) | 10 (≈ 18.5 µM) | 13 (≈ 24.1 µM) | 6 (≈ 11.1 µM) | 20 (≈ 37.1 µM) | O=C1Nc2[nH]c(=S)n(-c3cccc(O)c3)c(=O)c2C(c2ccccc2Cl)N1/N=N/c1ccc(Cl)cc1 (configuration not stated) |
| 16 (≈ 28.1 µM) | 5 (≈ 8.8 µM) | 6 (≈ 10.6 µM) | 8 (≈ 14.1 µM) | 3 (≈ 5.28 µM) | 13 (≈ 22.9 µM) | O=C1Nc2[nH]c(=S)n(-c3cccc([N+](=O)[O-])c3)c(=O)c2C(c2ccccc2Cl)N1/N=N/c1ccc(Cl)cc1 (configuration not stated) |
| 42 (≈ 78.1 µM) | 22 (≈ 40.9 µM) | 26 (≈ 48.4 µM) | 31 (≈ 57.7 µM) | 21 (≈ 39.1 µM) | 39 (≈ 72.6 µM) | Cc1ccc(-n2c(=S)[nH]c3c(c2=O)C(c2ccccc2Cl)N(/N=N/c2ccc(Cl)cc2)C(=O)N3)cc1 (configuration not stated) |
| 29 (≈ 52 µM) | 12 (≈ 21.5 µM) | 13 (≈ 23.3 µM) | 14 (≈ 25.1 µM) | 9 (≈ 16.1 µM) | 24 (≈ 43 µM) | O=C1Nc2[nH]c(=S)n(-c3ccc(Cl)cc3)c(=O)c2C(c2ccccc2Cl)N1/N=N/c1ccc(Cl)cc1 (configuration not stated) |
| 27 (≈ 50.1 µM) | 10 (≈ 18.5 µM) | 12 (≈ 22.2 µM) | 15 (≈ 27.8 µM) | 8 (≈ 14.8 µM) | 23 (≈ 42.6 µM) | O=C1Nc2[nH]c(=S)n(-c3ccc(O)cc3)c(=O)c2C(c2ccccc2Cl)N1/N=N/c1ccc(Cl)cc1 (configuration not stated) |
| 22 (≈ 38.8 µM) | 7 (≈ 12.3 µM) | 8 (≈ 14.1 µM) | 11 (≈ 19.4 µM) | 5 (≈ 8.81 µM) | 17 (≈ 30 µM) | O=C(O)c1ccc(-n2c(=S)[nH]c3c(c2=O)C(c2ccccc2Cl)N(/N=N/c2ccc(Cl)cc2)C(=O)N3)cc1 (configuration not stated) |

| SMILES | MIC (Aspergillus niger) [µg/mL] | MIC (Bacillus subtilis) [µg/mL] | MIC (Escherichia coli) [µg/mL] | MIC [1] [µg/mL] | MIC (Staphylococcus aureus) [µg/mL] | MIC (Candida albicans) [µg/mL] |
| --- | --- | --- | --- | --- | --- | --- |
| CC1(C)S[C@@H]2[C@H](NC(=O)[C@H](N)c3ccccc3)C(=O)N2[C@H]1C(=O)O [AMPICILLIN] |  | 10 (≈ 28.6 µM) | 49 (≈ 140 µM) | 15 (≈ 42.9 µM) | 50 (≈ 143 µM) |  |
